This experiment has as its target T1, intracellular domain of human Tie2 (GST fusion protein) (Homo sapiens, UniProt Q02763).
T1 construct: intracellular domain of human Tie2 (amino acids 776-1124); made in house; host or cells: Baculovirus-infected insect cells (Hi5)
Put plainly: Tie2 kinase assay (Tie2-TR-FRET). Type of experiment: biochemical. To be noted: ATP concentration 1 mM, in some cases means of several independent determinations. The procedure, abridged:
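High ATP (1 mM final) with 1 μM biotin-peptide substrate; reaction 60 min at 22 °C after 15 min compound pre-binding to GST-Tie2 (aa 776-1124) in HEPES pH 7 with Mg/Mn. Phosphopeptide detected by TR-FRET emission ratio 665/620 nm. IC50 from 4-parameter fit over 20 μM to 0.073 nM, duplicates.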

pIC50: −log10 of the molar value.

T1 sequence (Q02763 776-1124): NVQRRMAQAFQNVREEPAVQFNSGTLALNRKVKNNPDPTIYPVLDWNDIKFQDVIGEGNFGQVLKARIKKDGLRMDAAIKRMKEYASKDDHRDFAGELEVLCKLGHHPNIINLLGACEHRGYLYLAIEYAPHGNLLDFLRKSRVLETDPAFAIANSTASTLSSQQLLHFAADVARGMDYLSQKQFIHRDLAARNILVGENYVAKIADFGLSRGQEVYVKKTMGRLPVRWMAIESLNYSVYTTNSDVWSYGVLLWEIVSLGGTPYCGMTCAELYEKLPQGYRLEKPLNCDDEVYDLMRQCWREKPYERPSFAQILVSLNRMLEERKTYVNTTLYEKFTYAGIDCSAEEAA

`Cc1cc(C)c(-n2ccn3nc(-c4cccnn4)cc23)cc1NC(=O)c1cc(C#N)cc(S(F)(F)(F)(F)F)c1` [Example 171, 3-Cyano-N-{2,4-dimethyl-5-[6-(pyridazin-3-yl)-1H-imidazo[1,2-b]pyrazol-1-yl]phenyl}-5-(pentafluoro-λ^6-sulphanyl)benzamide] had a pIC50 of 9.52.
The compound `Cc1ccc(NC(=O)c2cc(C#N)cc(S(F)(F)(F)(F)F)c2)cc1-n1ccn2nc(-c3cccnc3)c(F)c12` [Example 159, 3-Cyano-N-{3-[7-fluoro-6-(pyridin-3-yl)-1H-imidazo[1,2-b]pyrazol-1-yl]-4-methylphenyl}-5-(pentafluoro-λ^6-sulphanyl)benzamide] showed a pIC50 of 8.00.
With `Cc1ccc(NC(=O)c2cc(C#N)cc(S(F)(F)(F)(F)F)c2)cc1-n1ccn2nc(-c3ccnnc3)cc12` [Example 168, 3-Cyano-N-{4-methyl-3-[6-(pyridazin-4-yl)-1H-imidazo[1,2-b]pyrazol-1-yl]phenyl}-5-(pentafluoro-λ^6-sulphanyl)benzamide] the figure was 6.14; with `Cc1cc(C(=O)Nc2ccc(C)c(-n3ccn4nc(-c5cccnc5)cc34)c2)cc(S(F)(F)(F)(F)F)c1` [Example 30, 3-Methyl-N-{4-methyl-3-[6-(pyridin-3-yl)-1H-imidazo[1,2-b]pyrazol-1-yl]phenyl}-5-(pentafluoro-λ^6-sulphanyl)benzamide], 8.70.
As for `Cc1cc(C)c(-n2ccn3nc(-c4cccnc4)cc23)cc1NC(=O)c1cc(C(C)(C)F)cc(S(F)(F)(F)(F)F)c1` [Example 149, N-{2,4-Dimethyl-5-[6-(pyridin-3-yl)-1H-imidazo[1,2-b]pyrazol-1-yl]phenyl}-3-(2-fluoropropan-2-yl)-5-(pentafluoro-λ^6-sulphanyl)benzamide], the figure is 8.64; as for `Cc1cc(C)c(-n2ccn3nc(-c4cccnn4)cc23)cc1NC(=O)c1cc(Br)cc(S(F)(F)(F)(F)F)c1` [Example 170, 3-Bromo-N-{2,4-dimethyl-5-[6-(pyridazin-3-yl)-1H-imidazo[1,2-b]pyrazol-1-yl]phenyl}-5-(pentafluoro-λ^6-sulphanyl)benzamide], 8.92.
With `Cc1ccc(NC(=O)c2cc(F)cc(S(F)(F)(F)(F)F)c2)cc1-n1ccn2nc(-c3cncs3)cc12` [Example 173, 3-Fluoro-N-{4-methyl-3-[6-(1,3-thiazol-5-yl)-1H-imidazo[1,2-b]pyrazol-1-yl]phenyl}-5-(pentafluoro-λ^6-sulphanyl)benzamide], the negative logarithm of the IC50 (pIC50) was 8.03.
With `Cc1ccc(NC(=O)c2cc(C(C)(C)O)cc(S(F)(F)(F)(F)F)c2)cc1-n1ccn2nc(-c3cccnc3)c(F)c12` [Example 160, N-{3-[7-Fluoro-6-(pyridin-3-yl)-1H-imidazo[1,2-b]pyrazol-1-yl]-4-methylphenyl}-3-(2-hydroxypropan-2-yl)-5-(pentafluoro-λ^6-sulphanyl)benzamide] the figure was 9.00.
`Cc1cc(C)c(-n2ccn3nc(-c4cn[nH]c4)cc23)cc1NC(=O)c1cc(C#N)cc(S(F)(F)(F)(F)F)c1` [Example 86, 3-Cyano-N-{2,4-dimethyl-5-[6-(1H-pyrazol-4-yl)-1H-imidazo[1,2-b]pyrazol-1-yl]phenyl}-5-(pentafluoro-λ^6-sulphanyl)benzamide] gave a negative logarithm of the IC50 (pIC50) of 8.96.
As for `Cc1cc(NC(=O)c2cccc(S(F)(F)(F)(F)F)c2)cc(-n2ccn3nc(-c4cccnc4)cc23)c1C` [Example 100, N-{3,4-Dimethyl-5-[6-(pyridin-3-yl)-1H-imidazo[1,2-b]pyrazol-1-yl]phenyl}-3-(pentafluoro-λ^6-sulphanyl)benzamide], the figure is 6.76.
As for `Cc1ccc(NC(=O)c2cc(CN3CCNCC3)cc(S(F)(F)(F)(F)F)c2)cc1-n1ccn2nc(-c3cccnc3)cc12` [Example 35, N-{4-Methyl-3-[6-(pyridin-3-yl)-1H-imidazo[1,2-b]pyrazol-1-yl]phenyl}-3-(pentafluoro-λ^6-sulphanyl)-5-(piperazin-1-ylmethyl)benzamide], the figure is 9.30; as for `Cc1ccc(NC(=O)c2cc(C(C)C)ccc2O)cc1-n1ccn2nc(-c3cccnc3)cc12` [Example 53, 2-Hydroxy-N-{4-methyl-3-[6-(pyridin-3-yl)-1H-imidazo[1,2-b]pyrazol-1-yl]phenyl}-5-(propan-2-yl)benzamide], 6.47; as for `Cc1ccc(NC(=O)c2cc(CN3CCCC3)cc(C(C)(C)C)c2)cc1-n1ccn2nc(-c3cn[nH]c3)cc12` [Example 9, 3-tert-Butyl-N-{4-methyl-3-[6-(1H-pyrazol-4-yl)-1H-imidazo[1,2-b]pyrazol-1-yl]phenyl}-5-(pyrrolidin-1-ylmethyl)benzamide], 8.17.
With `Cc1ccc(NC(=O)c2cc(C#N)cc(C(C)(C)C)c2)cc1-n1ccn2nc(-c3cccnc3)cc12` [Example 50, 3-tert-Butyl-5-cyano-N-{4-methyl-3-[6-(pyridin-3-yl)-1H-imidazo[1,2-b]pyrazol-1-yl]phenyl}-benzamide] the figure was 8.92; with `Cc1ccc(NC(=O)c2cc(C(F)(F)F)cc(C(F)(F)F)c2)cc1-n1ccn2nc(-c3cccnc3)cc12` [Example 43, N-{4-Methyl-3-[6-(pyridin-3-yl)-1H-imidazo[1,2-b]pyrazol-1-yl]phenyl}-3,5-bis(trifluoromethyl)-benzamide], 7.25; with `Cc1ccc(NC(=O)c2cc(OCCCN)cc(S(F)(F)(F)(F)F)c2)cc1-n1ccn2nc(-c3cccnc3)cc12` [Example 23, 3-(3-Aminopropoxy)-N-{4-methyl-3-[6-(pyridin-3-yl)-1H-imidazo[1,2-b]pyrazol-1-yl]phenyl}-5-(pentafluoro-λ^6-sulphanyl)benzamide], 9.52.
Consider `Cc1cc(C)c(-n2ccn3nc(-c4cccnc4)cc23)cc1NC(=O)c1cccc(C(C)(C)O)c1` [Example 141, N-{2,4-Dimethyl-5-[6-(pyridin-3-yl)-1H-imidazo[1,2-b]pyrazol-1-yl]phenyl}-3-(2-hydroxypropan-2-yl)benzamide], for which the pIC50 is 7.21.
With `Cc1ccc(NC(=O)c2cc(O)cc(S(F)(F)(F)(F)F)c2)cc1-n1ccn2nc(-c3cccnc3)cc12` [Example 20, 3-Hydroxy-N-{4-methyl-3-[6-(pyridin-3-yl)-1H-imidazo[1,2-b]pyrazol-1-yl]phenyl}-5-(pentafluoro-λ^6-sulphanyl)benzamide] the figure was 8.51.
With `Cc1ccc(NC(=O)c2cc(N3CCNCC3)cc(S(F)(F)(F)(F)F)c2)cc1-n1ccn2nc(-c3cccnc3)cc12` [Example 17, N-{4-Methyl-3-[6-(pyridin-3-yl)-1H-imidazo[1,2-b]pyrazol-1-yl]phenyl}-3-(pentafluoro-λ^6-sulphanyl)-5-(piperazin-1-yl)benzamide] the figure was 9.52; with `Cc1ccc(NC(=O)c2cc(Br)cc(S(F)(F)(F)(F)F)c2)cc1-n1ccn2nc(-c3cccnc3)cc12` [Example 89, 3-Bromo-N-{4-methyl-3-[6-(pyridin-3-yl)-1H-imidazo[1,2-b]pyrazol-1-yl]phenyl}-5-(pentafluoro-λ^6-sulphanyl)benzamide], 8.64; with `Cc1cc(C)c(-n2ccn3nc(-c4cccnc4)cc23)cc1NC(=O)c1cccc(OCC(C)C)c1` [Example 133, N-{2,4-Dimethyl-5-[6-(pyridin-3-yl)-1H-imidazo[1,2-b]pyrazol-1-yl]phenyl}-3-isobutoxybenzamide], 7.28.
With `Cc1ccc(NC(=O)c2cc(C(C)(C)C)cc(C(C)(C)O)c2)cc1-n1ccn2nc(-c3cccnc3)cc12` [Example 49, 3-tert-Butyl-5-(2-hydroxypropan-2-yl)-N-{4-methyl-3-[6-(pyridin-3-yl)-1H-imidazo[1,2-b]-pyrazol-1-yl]phenyl}benzamide] the figure was 9.52.
Take `Cc1cc(C)c(-n2ccn3nc(-c4cncnc4)cc23)cc1NC(=O)c1cc(Br)cc(S(F)(F)(F)(F)F)c1` [Example 165, 3-Bromo-N-{2,4-dimethyl-5-[6-(pyrimidin-5-yl)-1H-imidazo[1,2-b]pyrazol-1-yl]phenyl}-5-(pentafluoro-λ^6-sulphanyl)benzamide]: the pIC50 is 8.77.
As for `COc1cc(OC)cc(C(=O)Nc2ccc(C)c(-n3ccn4nc(-c5cccnc5)cc34)c2)c1` [Example 63, 3,5-Dimethoxy-N-{4-methyl-3-[6-(pyridin-3-yl)-1H-imidazo[1,2-b]pyrazol-1-yl]phenyl}benzamide], the figure is 6.11; as for `Cc1ccc(NC(=O)c2cc(-n3ccnc3C)cc(C(F)(F)F)c2)cc1-n1cc(C)n2nc(-c3cn[nH]c3)cc12` [Example 14, 3-(2-Methyl-1H-imidazol-1-yl)-N-{4-methyl-3-[3-methyl-6-(1H-pyrazol-4-yl)-1H-imidazo[1,2-b]-pyrazol-1-yl]phenyl}-5-(trifluoromethyl)benzamide], 9.40; as for `Cc1cc(C)c(-n2ccn3nc(-c4cccnc4)cc23)cc1NC(=O)c1cccc(SC(F)(F)F)c1` [Example 126, N-{2,4-Dimethyl-5-[6-(pyridin-3-yl)-1H-imidazo[1,2-b]pyrazol-1-yl]phenyl}-3-[(trifluoromethyl)-sulphanyl]benzamide], 8.92.
As for `Cc1ccc(NC(=O)c2cc(Cl)cc(S(F)(F)(F)(F)F)c2)cc1-n1ccn2nc(-c3cccnc3)cc12` [Example 27, 3-Chloro-N-{4-methyl-3-[6-(pyridin-3-yl)-1H-imidazo[1,2-b]pyrazol-1-yl]phenyl}-5-(pentafluoro-λ^6-sulphanyl)benzamide], the figure is 8.51.
As for `COc1cc(C(=O)Nc2ccc(C)c(-n3ccn4nc(-c5cccnc5)cc34)c2)cc(S(F)(F)(F)(F)F)c1` [Example 21, 3-Methoxy-N-{4-methyl-3-[6-(pyridin-3-yl)-1H-imidazo[1,2-b]pyrazol-1-yl]phenyl}-5-(pentafluoro-λ^6-sulphanyl)benzamide], the figure is 8.68.

(Values after patent US20150005288A1, “SUBSTITUTED PHENYLIMIDAZOPYRAZOLES AND USE THEREOF” (Bayer Intellectual Property GmbH, priority 2012, published 2015).)
